Assay results as given in patent publication US20250221966A1, “RXFP1 AGONISTS” (BRISTOL-MYERS SQUIBB COMPANY, priority 2021, published 2025).
pEC50: −log10 of the molar value. Where two headings read alike, the source gives them in different places.

Target: T1, human RXFP1 (Homo sapiens, UniProt Q9HBX9)
T1 construct: expressed in transfected cells
T1 sequence (Q9HBX9 1-757): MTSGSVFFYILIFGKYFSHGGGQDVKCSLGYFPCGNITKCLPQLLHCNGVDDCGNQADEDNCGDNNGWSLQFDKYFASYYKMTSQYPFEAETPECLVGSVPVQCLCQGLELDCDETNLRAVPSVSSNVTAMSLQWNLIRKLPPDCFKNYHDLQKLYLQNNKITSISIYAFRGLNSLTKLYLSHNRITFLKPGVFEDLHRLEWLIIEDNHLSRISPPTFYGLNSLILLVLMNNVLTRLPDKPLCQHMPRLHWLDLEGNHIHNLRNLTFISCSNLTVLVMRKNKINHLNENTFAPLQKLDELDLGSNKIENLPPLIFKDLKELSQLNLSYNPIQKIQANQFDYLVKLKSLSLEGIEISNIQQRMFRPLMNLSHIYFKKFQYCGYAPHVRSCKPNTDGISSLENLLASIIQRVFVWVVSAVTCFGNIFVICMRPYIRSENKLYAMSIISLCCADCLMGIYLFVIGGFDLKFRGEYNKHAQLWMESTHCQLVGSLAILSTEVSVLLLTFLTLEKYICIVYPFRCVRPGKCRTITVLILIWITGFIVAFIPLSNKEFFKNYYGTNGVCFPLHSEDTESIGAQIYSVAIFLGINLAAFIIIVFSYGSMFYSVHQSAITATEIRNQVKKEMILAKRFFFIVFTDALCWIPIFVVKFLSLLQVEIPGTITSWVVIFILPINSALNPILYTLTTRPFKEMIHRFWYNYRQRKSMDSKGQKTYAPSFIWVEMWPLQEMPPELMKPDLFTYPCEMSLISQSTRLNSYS
Assay: RXFP1 cAMP assay (hRXFP1 HEK293 cAMP assay, HTRF)
Type: cell-based
Procedure, shortened: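 hRXFP1-HEK293 stable line; HBSS + Ca/Mg, 20 mM HEPES, 0.05% BSA, 0.5 mM IBMX; cpd 0.010 nM–50 μM, 2% DMSO; 30 min RT; lysis, HTRF cAMP detection; 4-PL fit.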

[1] = HEK293 cells stably expressing human RXFP1, 30 min at room temperature, read-out: cAMP hRXFP1 HEK293 Assay EC50

| Structure (SMILES) | pEC50 (cAMP hRXFP1 HEK293 Assay EC50, HEK293 cells stably expressing human RXFP1, 30 min at room temperature) | pEC50 [1] |
| --- | --- | --- |
| COc1ccc(-c2ccc(C(=O)O)cc2)cc1C(=O)N[C@H]1[C@@H](C(=O)Nc2ccc(F)c(C(F)(F)F)c2)[C@H]2CC[C@@H]1C2=C(C)C [compound 83] | 7.18 | – |
| COc1ccc(-c2ccc(N3CCOCC3)nc2)cc1C(=O)N[C@H]1[C@@H](C(=O)Nc2ccc(F)c(C(F)(F)F)c2)[C@H]2CC[C@@H]1C2=C(C)C [compound 81] | – | 7.41 |
| COc1ccc(-c2ccc(C(=O)NCC(=O)O)cc2F)cc1C(=O)N[C@@H]1C2CCC(/C2=C/c2ccccc2)[C@@H]1C(=O)Nc1ccc(F)c(C(F)(F)F)c1 (stereo partly shown) [compound 194] | – | 8.30 |
| COc1ccc(-c2ccc(C(=O)NCCN3CCOCC3)cc2F)cc1C(=O)N[C@@H]1C2CCC(/C2=C/c2ccccc2)[C@@H]1C(=O)Nc1ccc(F)c(C(F)(F)F)c1 (stereo partly shown) [compound 198] | – | 7.12 |
| COc1cc(F)c(F)cc1C(=O)N[C@@H]1C2CCC(/C2=C/c2ccccc2)[C@@H]1C(=O)Nc1cccc(S(=O)(=O)C(F)(F)F)c1 (stereo partly shown) [Example 127] | – | 7.31 |
| CC[C@@H](NC(=O)[C@@H]1[C@H](NC(=O)c2cc(C3=NOC4COCC34)ccc2OC)[C@@H]2CC[C@H]1/C2=C/C1CC1)C1CCC1 (stereo partly shown) [Example 578] | – | 7.15 |
| COc1c(F)cc(C2=NOC(C)(CO)C2)cc1C(=O)N[C@H]1[C@@H](C(=O)N[C@H](C)C2(C)CC2)[C@H]2CC[C@@H]1/C2=C\C1CC1 (stereo partly shown) [compound 744] | – | 8.60 |
| COc1ccc(-c2cc(C(OC(=O)Nc3ccccc3)C(F)F)ccc2F)cc1C(=O)N[C@H]1[C@@H](C(=O)Nc2ccc(F)c(C(F)(F)F)c2)[C@H]2CC[C@@H]1/C2=C\C1CC1 (stereo partly drawn) [Example 233, 1-(3′-(((1R,2R,3S,4R,Z)-7-(cyclopropylmethylene)-3-((4-fluoro-3-(trifluoromethyl)phenyl)carbamoyl)bicyclo[2.2.1]heptan-2-yl)carbamoyl)-6-fluoro-4′-methoxy-[1,1′-biphenyl]-3-yl)-2,2-difluoroethyl phenylcarbamate] | – | 8.70 |
| COc1cc(C2CC2)c(C2=NOC3COCC23)cc1C(=O)N[C@H]1C(C(=O)Nc2ccc(F)c(C(F)(F)F)c2)[C@H]2CC[C@@H]1/C2=C\C1CC1 (single isomer, unassigned) [Example 626] | – | 6.77 |
| COc1ccc(-c2cc(C3=NOC4CC(CO)CC34)ccc2F)cc1C(=O)N[C@H]1[C@@H](C(=O)Nc2ccc(F)c(C(F)(F)F)c2)[C@H]2CC[C@@H]1/C2=C\C1CC1 (stereo partly shown) [compound 954] | – | 8.28 |
| COc1ccc(C2=NOC3COCC23)cc1C(=O)N[C@H]1[C@@H](C(=O)NCc2c(C)cccc2C)[C@H]2CC[C@@H]1/C2=C\C1CC1 (stereo partly shown) [compound 540] | – | 7.53 |
| COc1ccc(C2=NO[C@H]3C[C@H](CO)C[C@@H]23)cc1C(=O)N[C@H]1[C@@H](C(=O)N[C@H](C)C2(C)CC2)[C@H]2CC[C@@H]1/C2=C\CC(O)C(F)(F)F (stereo partly shown) [compound 815] | – | 8.82 |
| COC(=O)N1CCC=C(c2ccc(OC)c(C(=O)N[C@@H]3C4CCC(C4=C(C)C)[C@@H]3C(=O)Nc3ccc(F)c(C(F)(F)F)c3)c2)C1 (stereo partly shown) [Example 134] | – | 5.85 |
| COc1ccc(-c2cc(C(NC(=O)C3CCOCC3)C(=O)O)ccc2F)cc1C(=O)N[C@H]1[C@@H](C(=O)N[C@H](C)C2(C)CC2(F)F)[C@H]2CC[C@@H]1/C2=C\C1CC(F)(F)C1 (stereo partly shown) [compound 971] | – | 8.55 |
| COc1ccc(-c2cc(C(COC(=O)Nc3ccccc3)C(F)(F)F)ccc2F)cc1C(=O)N[C@H]1[C@@H](C(=O)Nc2ccc(F)c(C(F)(F)F)c2)[C@H]2CC[C@@H]1/C2=C\C1CC1 (stereo partly shown) [compound 876] | – | 9.05 |
| COc1ccc(C2=NOC3COCC23)cc1C(=O)N[C@H]1[C@@H](C(=O)NC(C)(C)c2ccccc2Cl)[C@H]2CC[C@@H]1/C2=C\C1CC1 (stereo partly shown) [compound 669] | – | 6.38 |
| COc1ccc(-c2cc(C(COC(=O)NC3CCC3)C(F)(F)F)ccc2F)cc1C(=O)N[C@H]1[C@@H](C(=O)Nc2ccc(F)c(C(F)(F)F)c2)[C@H]2CC[C@@H]1/C2=C\C1CCCC1 (stereo partly shown) [compound 893] | – | 8.66 |

| Structure (SMILES) | pEC50 (cAMP hRXFP1 HEK293 Assay EC50, HEK293 cells stably expressing human RXFP1, 30 min at room temperature) | pEC50 [1] |
| --- | --- | --- |
| COc1ccc(-c2cccc3c2ccn3CC(C)(C)O)cc1C(=O)N[C@@H]1C2CCC(/C2=C/C2CCCC2)[C@@H]1C(=O)Nc1ccc(F)c(C(F)(F)F)c1 (stereo partly shown) [compound 895] | – | 9.70 |
| CCCC/C=C1\C2CCC1[C@H](C(=O)Nc1ccc(F)c(C(F)(F)F)c1)[C@@H]2NC(=O)c1cc(C2=NOC(CC(=O)O)C2)ccc1OC (stereo partly shown) [compound 395] | – | 6.98 |
| COc1ccc(C2=NOC3CCCC23)cc1C(=O)N[C@H]1[C@@H](C(=O)Nc2ccc(F)c(C(F)(F)F)c2)[C@H]2CC[C@@H]1/C2=C\C1CC1 (single isomer, unassigned) [compound 662] | – | 6.44 |
| COc1ccc(-c2cc([C@H](OC(=O)NC3CCC3)C(F)(F)F)ccc2F)cc1C(=O)N[C@@H]1C2CCC(/C2=C/C(C)C)[C@@H]1C(=O)Nc1ccc(F)c(C(F)(F)F)c1 (stereo partly shown) [compound 925] | – | 8.28 |
| COc1cc(F)c(F)cc1C(=O)N[C@@H]1C2CCC(/C2=C\c2ccccc2)[C@]1(F)C(=O)Nc1ccc(F)c(C(F)(F)F)c1 (stereo partly shown) [Example 52] | – | 5.52 |
| COc1ccc(-c2cc(C(NC(=O)C3CCOCC3)C(=O)O)ccc2F)cc1C(=O)N[C@@H]1C2CCC(/C2=C/C(F)(F)F)[C@@H]1C(=O)Nc1ccc(F)c(C(F)(F)F)c1 (stereo partly shown) [compound 239] | – | 9.00 |
| COc1ccc(C2CC3CNS(=O)(=O)C32)cc1C(=O)N[C@H]1[C@@H](C(=O)Nc2ccc(F)c(C(F)(F)F)c2)[C@H]2CC[C@@H]1/C2=C\C1CC1 (single isomer, unassigned) [compound 733] | – | 8.20 |
| COc1ccc(-c2cc(C(CC(F)(F)F)NC(=O)C3CCOCC3)ccc2F)cc1C(=O)N[C@H]1[C@@H](C(=O)Nc2ccc(F)c(C(F)(F)F)c2)[C@H]2CC[C@@H]1/C2=C\C1CCCC1 (stereo partly shown) [compound 944] | – | 8.72 |
| COC(=O)c1cccc(-c2ccc(OC)c(C(=O)N[C@H]3[C@@H](C(=O)Nc4ccc(F)c(C(F)(F)F)c4)[C@H]4CC[C@@H]3C4=C(C)C)c2)c1 [compound 86] | – | 6.82 |
| COc1ccc([C@@H]2CO[C@H]3[C@@H]2OC[C@H]3O)cc1C(=O)N[C@H]1[C@@H](C(=O)Nc2ccc(F)c(C(F)(F)F)c2)[C@H]2CC[C@@H]1/C2=C\C1CC1 [compound 620] | – | 6.79 |
| COc1ccc(-c2cnc3c(cnn3CC(=O)O)c2)cc1C(=O)N[C@@H]1C2CCC(/C2=C/C(F)(F)F)[C@@H]1C(=O)Nc1ccc(F)c(C(F)(F)F)c1 (stereo partly shown) [compound 317] | – | 7.51 |
| COc1cc(F)c(F)cc1C(=O)N[C@@H]1C2CCC(/C2=C/c2ccc(C#N)cc2)[C@@H]1C(=O)Nc1ccc(F)c(C(F)(F)F)c1 (stereo partly shown) [compound 62] | – | 6.15 |
| COc1ccc(C2=NOC3CC(O)(C(F)(F)F)CC23)cc1C(=O)N[C@H]1[C@@H](C(=O)NCC(C)(C)C)[C@H]2CC[C@@H]1/C2=C\C1CC1 (stereo partly shown) [compound 862] | – | 8.47 |
| COc1ccc(-c2ccc(C(=O)O)cc2)cc1C(=O)N[C@@H]1C2CCC(/C2=C/c2ccccc2)[C@@H]1C(=O)Nc1ccc(F)c(C(F)(F)F)c1 (stereo partly shown) [Example 79] | – | 7.96 |
| COc1ccc(C2=NOC3COCC23)cc1C(=O)N[C@H]1[C@@H](C(=O)N[C@H](C)C2(C)CC2)[C@H]2CC[C@@H]1/C2=C\C1CC1 (stereo partly shown) [Example 447] | – | 9.10 |
| COc1cc(F)c(F)cc1C(=O)N[C@@H]1C2CCC(/C2=C/c2cccc(Oc3ccccc3)c2)[C@@H]1C(=O)Nc1ccc(F)c(C(F)(F)F)c1 (stereo partly shown) [compound 46] | – | 6.92 |
| COC(=O)c1c[nH]c2cc(-c3ccc(OC)c(C(=O)N[C@@H]4C5CCC(/C5=C/C(F)(F)F)[C@@H]4C(=O)Nc4ccc(F)c(C(F)(F)F)c4)c3)ccc12 (stereo partly shown) [compound 296] | – | 6.69 |
